Measurements: patent publication US20180201592A1, “2-AMINO-1,3,4-THIADIAZINE AND 2-AMINO-1,3,4-OXADIAZINE BASED ANTIFUNGAL AGENTS” (F2G Limited, priority 2015, published 2018)

Assays:
Settings in all cases: banded MIC grade
Aspergillus fumigatus = assay: Minimum inhibitory concentration, YAG medium; format: cell-based
Experimental: (§1) Between 1 and 5 mgs of compound were accurately weighed out into a sterile Eppendorf tube. The compound was dissolved in DMSO to give a solution containing 5 mg/mL. Tubes were stored at −20° C. until required.
(§2) On the day of testing thawed solutions were vortex mixed to ensure homogeneity. 30 μL of solution was removed and added to 570 μL of sterile water in a separate sterile Eppendorf. The thoroughly mixed solution was used to prepare a series of doubling dilutions in water, in a deep well plate. Thirteen replicate plates were prepared using a Minitrak by aspirating 20 μL from each well into eleven clear polystyrene 96 well plates.
(§3) Spores of Aspergillus spp. (Aspergillus fumigatus [two strains], Aspergillus terreus [two strains], Aspergillus niger and Aspergillus flavus) were harvested from cultures grown on Sabarauds agar for 5 days, and resuspended in PBS/Tween 80 to approx 1×10^7 cfu/mL. Each organism suspension was diluted in YAG medium (1% glucose, 1% ammonium chloride and 0.5% yeast extract) to 0.5-2×10^4cfu/mL. 80 μL of an organism suspension was added to each well of the plate containing drug dilutions.
(§4) This typically produced MIC plates with a drug range 50-0.05 mg/L and organism inocula of 1-2×10^4 cfu/mL for Aspergillus spp. All plates were incubated for 24 hrs at 35° C. Growth was assessed by monitoring the optical density at 485 nm for each well. The MIC of a compound is the lowest drug concentration that inhibits growth of an organism by >70% compared with a drug free control. MICs are recorded as mg/L. In cases where the MIC of an organism is […] the MIC is repeated using a concentration range of 0.5-0.0005 mg/L.

A. fumigatus 210 = assay: Minimum inhibitory concentration, YAG medium; format: cell-based, Aspergillus fumigatus
Experimental: as §1, §2, §3, §4

A. terreus 49 = assay: Minimum inhibitory concentration, YAG medium; format: cell-based, Aspergillus terreus
Experimental: (§5) The compound was dissolved in DMSO to give a solution containing 5 mg/mL. Tubes were stored at −20° C. until required. On the day of testing thawed solutions were vortex mixed to ensure homogeneity. 30 μL of solution was removed and added to 570 μL of sterile water in a separate sterile Eppendorf. The thoroughly mixed solution was used to prepare a series of doubling dilutions in water, in a deep well plate. Thirteen replicate plates were prepared using a Minitrak by aspirating 20 μL from each well into eleven clear polystyrene 96 well plates. Spores of Aspergillus spp. […] All plates were incubated for 24 hrs at 35° C. Growth was assessed by monitoring the optical density at 485 nm for each well. […] MICs are recorded as mg/L.

Aspergillus flavus = assay: Minimum inhibitory concentration, YAG medium; format: cell-based
Experimental: as §5

Aspergillus niger = assay: Minimum inhibitory concentration, YAG medium; format: cell-based
Experimental: as §5

Aspergillus terreus = assay: Minimum inhibitory concentration, YAG medium; format: cell-based
Experimental: as §5

C. albicans = assay: Minimum inhibitory concentration, RPMI medium; format: cell-based
Experimental: as §5, with “Assays were also performed in RPMI medium (Roswell Park Memorial Media 1640). To perform MIC tests in this medium, dilutions” for “Spores”, “compounds are prepared in microtitre plates as described above.” for “Aspergillus spp.”, “24-48” for “24”, “The following organisms were tested: […]” for “MICs are recorded as mg/L.”

C. parapsilosis = assay: Minimum inhibitory concentration, RPMI medium; format: cell-based
Experimental: as §5, with “Assays were also performed in RPMI medium (Roswell Park Memorial Media 1640). To perform MIC tests in this medium, dilutions” for “Spores”, “compounds are prepared in microtitre plates as described above.” for “Aspergillus spp.”, “24-48” for “24”, “The following organisms were tested: […]” for “MICs are recorded as mg/L.”

C. tropicalis = assay: Minimum inhibitory concentration, RPMI medium; format: cell-based
Experimental: as §5, with “Assays were also performed in RPMI medium (Roswell Park Memorial Media 1640). To perform MIC tests in this medium, dilutions” for “Spores”, “compounds are prepared in microtitre plates as described above.” for “Aspergillus spp.”, “24-48” for “24”, “The following organisms were tested: […]” for “MICs are recorded as mg/L.”

SMILES	MIC grade, A. FUMIGATUS, YAG media (Aspergillus fumigatus)	MIC grade, A. FUMIGATUS 210, YAG media (A. fumigatus 210)	MIC grade, A. TERREUS 49, YAG media (A. terreus 49)	MIC grade, A. FLAVUS, YAG media (Aspergillus flavus)	MIC grade, A. NIGER, YAG media (Aspergillus niger)	MIC grade, A. TERREUS, YAG media (Aspergillus terreus)	MIC grade, C. ALBICANS, RPMI media (C. albicans)	MIC grade, C. PARAPSILOSIS, RPMI media (C. parapsilosis)	MIC grade, C. TROPICALIS, RPMI media (C. tropicalis)
COCCCCCCCC1=NN=C(N)SC1	4 (4: <0.2 mg/L)	4 (4: <0.2 mg/L)	4 (4: <0.2 mg/L)	4 (4: <0.2 mg/L)	4 (4: <0.2 mg/L)	4 (4: <0.2 mg/L)	4 (4: <1 mg/L)	4 (4: <1 mg/L)	4 (4: <1 mg/L)
NC1=NN=C(CCCCCCCOc2ccccc2)CS1	4 (4: <0.2 mg/L)	3 (3: 0.2-1 mg/L)	4 (4: <0.2 mg/L)	4 (4: <0.2 mg/L)	4 (4: <0.2 mg/L)	4 (4: <0.2 mg/L)	3 (3: 1-5 mg/L)	4 (4: <1 mg/L)	3 (3: 1-5 mg/L)
COCC1=NN=C(N)SC1	2 (2: 1-5 mg/L)	2 (2: 1-5 mg/L)	2 (2: 1-5 mg/L)	2 (2: 1-5 mg/L)	2 (2: 1-5 mg/L)	2 (2: 1-5 mg/L)	2 (2: 5-20 mg/L)	2 (2: 5-20 mg/L)	2 (2: 5-20 mg/L)
NC1=NN=C(CCCCCC(=O)O)CS1	2 (2: 1-5 mg/L)	2 (2: 1-5 mg/L)	2 (2: 1-5 mg/L)	2 (2: 1-5 mg/L)	2 (2: 1-5 mg/L)	2 (2: 1-5 mg/L)	1 (1: ≥20 mg/L)	1 (1: ≥20 mg/L)	1 (1: ≥20 mg/L)
CCCCOCCC1=CNN=C(N)S1	2 (2: 1-5 mg/L)	2 (2: 1-5 mg/L)	2 (2: 1-5 mg/L)	2 (2: 1-5 mg/L)	1 (1: ≥5 mg/L)	2 (2: 1-5 mg/L)	1 (1: ≥20 mg/L)	1 (1: ≥20 mg/L)	1 (1: ≥20 mg/L)
CCOC(=O)CCCCCC1=NN=C(N)SC1	3 (3: 0.2-1 mg/L)	4 (4: <0.2 mg/L)	4 (4: <0.2 mg/L)	4 (4: <0.2 mg/L)	4 (4: <0.2 mg/L)	4 (4: <0.2 mg/L)	4 (4: <1 mg/L)	4 (4: <1 mg/L)	3 (3: 1-5 mg/L)
